Results: article PMC10005222, “Development of a Novel Apigenin Dosage form as a Substitute for the Modern Triple Antithrombotic Regimen” (Molecules, 2023)

Columns and labels:
[1] = tested on: AA-induced platelet aggregation; assay: AA-induced platelet aggregation in PRP (light transmittance aggregometry); format: cell-based, human; settings: for IC50: Homo sapiens, AA 500 μM, PRP, 1 min pre-incubation, mean ± SD, three platelet preparations
Protocol: (§1) The antiplatelet activity of DHA-apigenin, apigenin, DHA, and equimolar solution of apigenin/DHA was studied in platelet rich plasma (PRP) by light transmittance aggregometry (LTA) assay, as previously described. Briefly, PRP was prepared from peripheral venous blood of apparently healthy normolipidemic volunteers. The platelets of PRP were adjusted to a final concentration of 2.5 × 10^8 per Ml with homologous platelet-poor plasma (PPP). The PRP was then pre-incubated with each one of the compounds for 1 min before the initiation of aggregation. The final DMSO concentration in each assay was <0.5% (v/v). In the control experiments, the PRP was incubated with each one of the compounds for 5 min in order to evaluate whether each tested compound was a platelet activator. Platelet aggregation induced by ADP (10 Μm), AA (500 Μm), and TRAP-6 (10 Μm) was determined in aliquots of 0.5 Ml of PRP, at 37 °C under continuous stirring at 1200 rpm, in a Chronolog Lumi-Aggregometer (model 700 4-channel) equipped with the AggroLink software package. The maximal aggregation, achieved within 4 min after the addition of each agonist, was determined and expressed as a percentage of 100% light transmission calibrated for each specimen (maximal percentage of aggregation; MPA). Τhe inhibitory efficacy of each compound tested was also expressed as IC50 values (concentration that induces 50% inhibition of platelet aggregation). All aggregation studies were conducted within 3 h after blood was drawn. The inhibition of platelet aggregation (IPA) values induced by each compound was calculated using the […].

[2] = tested on: ADP-induced platelet aggregation; assay: ADP-induced platelet aggregation in PRP (light transmittance aggregometry); format: cell-based, human; settings: for IC50: Homo sapiens, ADP 10 μM, PRP, 1 min pre-incubation, mean ± SD, three platelet preparations
Protocol: as §1

[3] = Human plasma stability assay (LC-MS/MS); format: in vitro ADME; settings: 37 °C
Protocol: Liquid chromatography was performed using an Advance Ultra High Performance Liquid Chromatography (UHPLC) system (Bruker, Germany). The column oven was set at 40 °C. For the separation, a Kinetex C18 column 100 mm × 2.1 mm, 2.6 μm, with a 2.1 mm pro-guard column, was used (Phenomenex). The mobile phases were composed of water (LC-MS grade) with formic acid 0.1% (A) and MeOH (B). The gradient followed at a constant flow of […] was: initial phase (B) concentration 5%, increased to 100% within 1 min, then kept constant for 5.5 min, and reduced to 5% until the end of the run. […] The injection volume was 2 μL, while the auto-sampler temperature was 15 °C.
For the detection of the conjugate, the EVOQ Elite ER TQ (Bruker) mass spectrometer was operated in negative ionization electrospray mode (ESI) under multiple reaction monitoring (MRM). […] Optimum ESI conditions were determined as follows: spray voltage, 4500 V; heated probe gas flow, 50 units; heated probe temperature 350℃; cone gas flow, 20 units; cone temperature, 200 °C; nebulizer gas flow, 40 units. Total control of LC and MS, as well as data acquisition, were performed with MSWS software, Version 8.2.1 (Bruker). […]
The in vitro stability of the apigenin molecular hybrid was evaluated in human plasma (Ph was adjusted to 7.4) at 37 °C. […]

[4] = Serum pharmacokinetics after oral administration in C57BL/6J mice; format: in vivo; settings: oral 50 mg/kg in olive oil; for Tmax / half-life / AUC(0-t) / Vd/F / Cmax / AUC(0-inf): male, mouse; for AUC(0-t): 0-6 h, read-out: AUC0−t, Estimate (%CV); for Vd/F / Cl/F: normalized to fraction absorbed; for Vd/F: read-out: Vz/F; for Cmax: read-out: Cmax, Estimate (%CV); for AUC(0-inf): to be considered with caution (high extrapolation); for AUC % extrapolated: based on λz, 50 mg/kg
Protocol: For the detection of the conjugate, the EVOQ Elite ER TQ (Bruker) mass spectrometer was operated in negative ionization electrospray mode (ESI) under multiple reaction monitoring (MRM). […] Optimum ESI conditions were determined as follows: spray voltage, 4500 V; heated probe gas flow, 50 units; heated probe temperature 350℃; cone gas flow, 20 units; cone temperature, 200 °C; nebulizer gas flow, 40 units. Total control of LC and MS, as well as data acquisition, were performed with MSWS software, Version 8.2.1 (Bruker). For the pharmacokinetic studies, a Xevo-G2-XS-QtoF mass spectrometer, coupled to a Waters UPLC I-Class Binary Solvent Manager (Waters Corp., Milford, MA, USA) was used. The mobile phases were composed of water (LC-MS grade) with formic acid 0.1% (A), and acetonitrile (LC-MS grade) with formic acid 0.1% (B). A constant flow of […] was used, with an injection volume of 1 μL; the gradient was as follows: initial phase (B) concentration 20%, increased to 100% within 1.5 min, then kept constant for 1 min, and reduced to 20% until the end of the run (4 min total runtime). The MS conditions were as follows: the scan range was set at m/z 100–600, and the source voltage was 0.8 Kv in negative ionization electrospray mode (ESI). The source temperature was 550 °C, the flow of desolvation gas (N2) was set to 1000 L per hour, and the cone gas flow was set to 20 L per hour. For MS/MS, the collision energy ramp was set from 20 eV to 40 eV, and the declustering potential was 40 V. The column used was the Acquity UPLC® BEH C18 1.7 µm device. For the post processing and analysis of the acquisition data, UNIFY soFTware was used.
60 male 8-week-old C57BL/6J wild type mice, with mean weight equal to 23.5 ± 2.1 g were randomly divided in two groups (a, b) of 30 and each one received different treatment as follows: (a) the apigenin hybrid formulation and (b) the parent apigenin, dissolved in extra virgin olive oil, orally via the gavage technique at the dose of 50 mg/kg. Mice in each group were randomly further divided in 6 subgroups of five, each group representing one sampling time point (15, 30, 60, 120, 240, and 360 min). Animals were anaesthetized with sevoflurane, and sacrificed to collect blood samples via cardiac puncture, in non-heparinized Eppendorf ® Tubes, at the time point of interest after administration. Blood samples were centrifuged (10,000× g rpm, 15 min, 4 °C), and serum was collected, frozen and stored at −70 °C until further processing. In order to quench the reactions, 395 μL of MeOH were added to each sample, along with IS (5 μL of Rosmarinic acid). The samples were vortexed and centrifuged at 10,000× g for 10 min. Then, the supernatant was taken, filtered and transferred to vials for analysis, as described above.
The Phoenix^TM (www.certara.com)®. software was used for data analysis using non-compartmental PK analysis (NCA). More specifically, sparse sampling NCA was performed to determine basic serum PK parameters, namely AUC0−t, AUCinf, Cmax and Tmax, and to calculate the relative oral bioavailability of apigenin after apigenin hybrid formulation and native apigenin oral administration. To calculate the PK parameters and their standard errors (SE), the mean concentration curve is calculated and used in conjunction with the available subject information. The log-linear trapezoidal method was used to calculate AUC0−t and AUCinf, with extrapolation to infinity by dividing the last concentration by the terminal slope, λz (kel, estimated by linear regression analysis on the last three points of the log-transformed concentration vs. time plot).

[5] = tested on: TRAP-6-induced platelet aggregation; assay: TRAP-6-induced platelet aggregation in PRP (light transmittance aggregometry); format: cell-based, human; settings: for IC50: Homo sapiens, TRAP-6 10 μM, PRP, 1 min pre-incubation, mean ± SD, three platelet preparations; for enhanced inhibitory activity with respect to DHA: TRAP-6 induced platelet aggregation
Protocol: as §1

[6] = ADP-induced platelet aggregation

SMILES	IC50 [1] [µM]	IC50 [2] [µM]	Tmax [4] [h]	half-life [4] [h]	AUC(0-t) [4] [ng·h/mL]	Vd/F [4] [L]	Cmax [4] [ng/mL]	AUC(0-inf) [4] [ng·h/mL]	Cl/F [4] [L/h]	IC50 [5] [µM]	other results
CC/C=C\C/C=C\C/C=C\C/C=C\C/C=C\C/C=C\CCC(=O)Oc1ccc(-c2cc(=O)c3c(O)cc(O)cc3o2)cc1 [4′-DHA-apigenin hybrid, 4′-DHA-apigenin]	353 ± 36	362 ± 20	2	17.4	91.7	66.5	17.8	471	2.65	52 ± 12	enhanced inhibitory activity with respect to apigenin ([1]; AA-induced platelet aggregation): 2 fold; enhanced inhibitory activity with respect to DHA [2, 6]: ~3 fold; enhanced inhibitory activity with respect to apigenin [2, 6]: ~2 fold; parent compound still present ([3]; after 30 min of incubation): 17.3%; half-life at 5 µM ([3]; pH 7.4, read-out: t1/2 in human plasma): ~0.217 h; AUC % extrapolated ([4]; listed as 4′-DHA-Apigenin): 80%; AUC % extrapolated ([4]; listed as 4′-DHA-apigenin): 80.5%; enhancement with respect to native apigenin ([5]; TRAP-6): 2 fold; enhanced inhibitory activity with respect to DHA [5]: more than 12 fold; enhanced inhibitory activity with respect to DHA ([5]; listed as 4′-DHA-apigenin): 12 fold
O=c1cc(-c2ccc(O)cc2)oc2cc(O)cc(O)c12 [Apigenin, apigenin]	850 ± 45	607 ± 35	2	3.44	35	106	10.8	58.8	21.3	56 ± 8	AUC % extrapolated [4]: 40%; AUC % extrapolated ([4]; listed as native apigenin): 40.5%
CC/C=C\C/C=C\C/C=C\C/C=C\C/C=C\C/C=C\CCC(=O)O [DHA, Cis-4,7,10,13,16,19-Docosahexanoic acid, reference compound]	130 ± 18	920 ± 53	–	–	–	–	–	–	–	680 ± 42	–
